In patent US8642265B2, “Compositions and methods for the detection of topoisomerase II complexes with DNA” (The Children's Hospital of Philadelphia, priority 2004, dated 2014):

Columns and labels:
[1] = biological target: human DNA topoisomerase IIα (Homo sapiens, UniProt P11388); experiment: DNA topoisomerase II in vitro cleavage assay; conditions: for cleavage at MLL bcr position 6588 over cleavage without drug (enzyme-only): drug at 20 μM, 10 min 37° C.
[2] = biological target: T1, DNA topoisomerase II covalent complexes in KG1 cells (Homo sapiens, UniProt P11388); experiment: Modified ICE bioassay in KG1 cells; format: cell-based; conditions: doxorubicin at 100 μM
T1 construct: endogenous in cells; host or cells: KG1 (KG-1) cells
T1 sequence (P11388 whole entry, one chain of several): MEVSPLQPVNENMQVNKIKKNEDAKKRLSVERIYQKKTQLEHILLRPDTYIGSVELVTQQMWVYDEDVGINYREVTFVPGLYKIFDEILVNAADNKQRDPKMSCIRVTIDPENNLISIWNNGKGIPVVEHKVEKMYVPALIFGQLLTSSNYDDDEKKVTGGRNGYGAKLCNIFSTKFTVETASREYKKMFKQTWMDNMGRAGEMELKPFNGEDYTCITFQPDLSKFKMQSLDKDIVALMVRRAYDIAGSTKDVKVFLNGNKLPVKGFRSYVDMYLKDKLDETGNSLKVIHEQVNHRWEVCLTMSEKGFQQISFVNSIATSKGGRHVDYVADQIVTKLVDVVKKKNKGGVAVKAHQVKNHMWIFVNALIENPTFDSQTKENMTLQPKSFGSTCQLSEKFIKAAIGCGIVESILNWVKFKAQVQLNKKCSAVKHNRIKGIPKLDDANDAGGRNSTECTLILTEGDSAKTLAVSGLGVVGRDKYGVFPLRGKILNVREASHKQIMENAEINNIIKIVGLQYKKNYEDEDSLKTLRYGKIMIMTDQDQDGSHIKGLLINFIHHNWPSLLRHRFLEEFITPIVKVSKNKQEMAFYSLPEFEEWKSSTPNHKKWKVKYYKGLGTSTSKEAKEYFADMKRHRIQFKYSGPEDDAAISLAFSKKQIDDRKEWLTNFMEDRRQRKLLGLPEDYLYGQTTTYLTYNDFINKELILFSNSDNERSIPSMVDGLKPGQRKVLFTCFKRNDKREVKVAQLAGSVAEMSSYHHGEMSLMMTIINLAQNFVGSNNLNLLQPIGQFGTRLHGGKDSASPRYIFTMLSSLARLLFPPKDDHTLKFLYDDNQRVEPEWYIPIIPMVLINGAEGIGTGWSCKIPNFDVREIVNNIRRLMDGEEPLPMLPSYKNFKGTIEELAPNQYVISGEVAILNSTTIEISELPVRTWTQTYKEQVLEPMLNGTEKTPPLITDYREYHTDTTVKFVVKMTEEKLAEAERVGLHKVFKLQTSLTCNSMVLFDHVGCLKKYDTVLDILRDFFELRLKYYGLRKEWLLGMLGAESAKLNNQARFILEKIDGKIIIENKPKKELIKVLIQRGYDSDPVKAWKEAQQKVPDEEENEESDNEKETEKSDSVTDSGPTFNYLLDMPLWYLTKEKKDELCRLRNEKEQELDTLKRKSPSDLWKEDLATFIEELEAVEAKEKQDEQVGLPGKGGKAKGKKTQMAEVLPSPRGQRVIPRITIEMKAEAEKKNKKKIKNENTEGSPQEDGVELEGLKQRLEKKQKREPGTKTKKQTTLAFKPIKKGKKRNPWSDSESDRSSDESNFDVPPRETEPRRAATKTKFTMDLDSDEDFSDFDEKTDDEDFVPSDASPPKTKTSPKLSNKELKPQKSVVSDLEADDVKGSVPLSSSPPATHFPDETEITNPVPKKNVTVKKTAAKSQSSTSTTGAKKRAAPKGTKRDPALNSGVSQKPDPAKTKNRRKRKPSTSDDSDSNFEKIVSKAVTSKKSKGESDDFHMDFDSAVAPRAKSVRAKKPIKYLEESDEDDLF
Method: The assays were performed on CEM cells (FIG. 7A), K562 cells (FIGS. 7B and 7C), and KG-1 cells (FIG. 7D).
(§1) After flash-freezing and thawing at 37° C., the DNA was sheared by passage through a 251/2 G needle. […] The pellet was dissolved in 200 μl of 10 mM Tris-HCl (pH 8.0) 1 mM EDTA buffer, the DNA was quantified and 5.6 μg of DNA was analyzed on a Western blot with a mouse anti-human DNA topoisomerase IIα antibody (DAKO, Glostrup, Denmark) to detect DNA topoisomerase IIα-bound DNA (11).
(§2) However, doxorubicin is an intercalative DNA topoisomerase II poison that induces DNA topoisomerase II cleavage with different sequence site-selectivity (Capranico et al., 1990) and that also is associated with leukemia as a treatment complication, albeit less often (Sandoval et al., 1993).

[3] = biological target: T2, DNA topoisomerase II cleavage complexes in K562 cells (Homo sapiens, UniProt P11388); experiment: Modified ICE bioassay in K562 cells; format: cell-based; conditions: for induction of DNA topoisomerase II cleavage complexes: 20 μM
T2 construct: endogenous in cells; host or cells: K562 cells
T2 sequence (P11388 whole entry, one chain of several): as above
Method: as §1, §2

[4] = biological target: DNA topoisomerase II cleavage complexes in CEM cells (Homo sapiens, UniProt P11388); experiment: Modified ICE (in vivo complex of enzyme) bioassay in CEM cells; conditions: 20 μM, 2 hours
Sequence of DNA topoisomerase II cleavage complexes in CEM cells (P11388 whole entry, one chain of several): as above

[5] = biological target: T3, DNA topoisomerase II covalent complexes in ex vivo expanded CD34+ cells (Homo sapiens, UniProt P11388); experiment: Modified ICE bioassay in ex vivo expanded CD34+ cells; format: cell-based; conditions: 2 hours, etoposide 100 μM
T3 construct: endogenous in cells; host or cells: primary human bone marrow CD34+ cells, expanded ex vivo
T3 sequence (P11388 whole entry, one chain of several): as above
Method: as §1

[6] = system: ex vivo expanded CD34+ cells; experiment: Cell viability by Trypan Blue exclusion; format: cell-based, human; conditions: etoposide 2 hours, same for untreated
Method: as §1
Cell viability assessed by Trypan blue exclusion was ˜70% for both conditions. As predicted in proliferating cells (6), native DNA topoisomerase II covalent complexes were detected in the untreated cells. […] The DNA topoisomerase IIα protein ran higher than its known molecular weight of 170 kDa, which is consistent with the presence of DNA bound to the enzyme.

[7] = biological target: T4, DNA topoisomerase II cleavage complexes with the MLL bcr in CD34+ cells (Homo sapiens, UniProt P11388); experiment: MLL bcr oligonucleotide microarray (XEOCHIP) of DNA topoisomerase II-bound DNA; format: cell-based; conditions: 100 μM, Q-Q plot
T4 construct: endogenous in cells; host or cells: primary human bone marrow CD34+ cells, expanded ex vivo
T4 sequence (P11388 whole entry, one chain of several): as above
From the text: Employing XEOCHIP™ technology (Xeotron, Houston, Tex.), a first generation MLL bcr oligonucleotide array containing replicate slots of each of 162 probes was created. The 162 probes included 73 probes for the non-repetitive MLL bcr sequences, 8 probes for the Alu region between nucleotide positions 663-1779 in the MLL bcr, 57 probes for MLL exon 25 which is unaffected by the translocations, and 24 probes for 9 bacterial control genes (see Tables 2 and 3; Tables 4 and 5 provide another example of a series of oligonucleotides that can be employed in a microarray). The 8.3 kb MLL bcr is represented by replicates of each of the 73 50 mers at average intervals of 115 bases to span the bcr. Because it has been well documented in the literature that the printing, general hybridization conditions, and scanning of microarrays introduce systemic effects that are related to the position on the chip, replicates of each of the probes in the array have been spaced throughout the chip.
Primary CD34+ selected human bone marrow cells were obtained through the NHLBI or purchased commercially. The cells were expanded ex vivo using conditions optimized to promote minimal differentiation in order to increase cell numbers as required to generate a useful model system.
DOP of the immunoaffinity-purified DNA topoisomerase II cleavage complexes from the treated and untreated cells was performed exactly as was done with the reference sample. […] Dye-swap experiments were also performed.
GeneSpring (Silicon Genetics, Redwood City, Calif.) was employed as a computational tool to visualize and analyze the data from MLL bcr XEOCHIPS™ with either treated or untreated samples in one channel and the reference sample in the other.
DOP-amplified DNA from the DNA topoisomerase II cleavage complexes in treated or untreated cells on separate chips was labeled with ALEXA FLUOR® 546. The MLL bcr reference sample was labeled with ALEXA FLUOR® 647. The null hypothesis represented by the straight line is that there is no effect at any probe, whereas upward departure points are potential hotspots and downward departure points are potential coldspots.

[8] = biological target: T5, DNA topoisomerase II covalent complexes with MLL and other sequences in CD34+ cells (Homo sapiens, UniProt P11388); experiment: Immunoaffinity purification, DOP amplification and real-time PCR of DNA topoisomerase IIα-bound DNA; format: cell-based
T5 construct: endogenous in cells; host or cells: primary human bone marrow CD34+ cells, expanded ex vivo
T5 sequence (P11388 whole entry, one chain of several): as above

[9] = 20 μM, additional 10 min at 75° C.

Sequence of human DNA topoisomerase IIα (P11388 whole entry): as the sequence (P11388 whole entry, one chain of several) above

SMILES	cleavage at MLL bcr position 6588 over cleavage without drug (enzyme-only) ([1]; MLL intron 8 substrate) [fold]	induction of DNA topoisomerase II covalent complexes [2]	induction of DNA topoisomerase II cleavage complexes [3]	induction of DNA topoisomerase II cleavage complexes [4]	formation of DNA topoisomerase II covalent complexes versus untreated cells [5]	cleavage at AF-4 intron 3 position 7126 relative to the strongest enzyme-only cleavage in the substrate (position 7114) ([1]; 20 μM, AF-4 intron 3 substrate) [fold]	rank in relative intensity of cleavage at AF-4 position 7126 among all cleavage sites ([1]; 20 μM, AF-4 intron 3 substrate)	potential coldspots for DNA topoisomerase II cleavage complexes (array probes), treated vs untreated [7]	potential hotspots for DNA topoisomerase II cleavage complexes (array probes), treated vs untreated [7]	further results
COc1cccc2c1C(=O)c1c(O)c3c(c(O)c1C2=O)C[C@@](O)(C(=O)CO)C[C@@H]3O[C@H]1C[C@H](N)[C@H](O)[C@H](C)O1 [doxorubicin]	0.4	induced DNA II covalent complexes	no induction	no induction						cleavage over enzyme-only cleavage at MLL bcr positions 4675 and 4673 and GAS7 position 1238 ([1]; 0.01 μM): quantifiably enhanced cleavage; effect on cleavage at MLL bcr position 6588 over a range of concentrations ([1]; 0.01 μM to 0.5 μM): dose-dependent increases over enzyme-only cleavage; cleavage at MLL 4675, 4673 and GAS7 1238 at high concentration ([1]; 20 μM): complete diminution; cleavage at AF-4 intron 3 position 7126 ([1]; 20 μM or lower concentrations, AF-4 intron 3 substrate): no detectable cleavage; concentration at which cleavage at AF-4 positions 7111, 7114 and 7119 began to decrease ([1]; AF-4 intron 3 substrate): 0.5 µM; effect on cleavage at AF-4 intron 3 positions 7111, 7114 and 7119 over a range of concentrations ([1]; AF-4 intron 3 substrate): dose-dependent increases in cleavage stimulation over enzyme-only cleavage; concentration at which cleavage enhancement at MLL 4675, 4673 and GAS7 1238 began to decrease ([1]; MLL and GAS7 substrates): 0.1 µM; concentration at which cleavage enhancement at MLL bcr position 6588 began to decrease ([1]; MLL intron 8 substrate): 2.5 µM; effect on cleavage at MLL bcr positions 6587 and 6589 ([1]; all concentrations tested): only catalytic inhibition
COc1cc([C@@H]2c3cc4c(cc3[C@@H](O[C@@H]3O[C@@H]5CO[C@@H](C)O[C@H]5[C@H](O)[C@H]3O)[C@H]3COC(=O)[C@H]23)OCO4)cc(O)c1O [etoposide catechol]	4.4			significant induction	increased formation of topoisomerase-DNA cleavage complexes	5.9	first			amount of cleavage complexes induced compared with etoposide [4]: comparable in amount to the parent drug
COC1=CC(C2c3cc4c(cc3C(O[C@@H]3O[C@@H]5COC(C)O[C@H]5[C@H](O)[C@H]3O)C3COC(=O)C23)OCO4)=CC(=O)C1=O (stereo partly drawn) [etoposide quinone]	9.8		Induction of DNA cleavage complexes was also observed	significant induction		3.4	5th			rank of cleavage at MLL bcr position 6588 among cleavage sites in the substrate ([1]; 20 μM, MLL intron 8 substrate): 3rd; concentration dependence of induction of DNA topoisomerase II cleavage complexes ([3]; 2 hours): concentration dependent increase
COc1cc([C@@H]2c3cc4c(cc3[C@@H](O[C@@H]3O[C@@H]5CO[C@@H](C)O[C@H]5[C@H](O)[C@H]3O)[C@H]3COC(=O)[C@H]23)OCO4)cc(OC)c1O [etoposide]	7.9	induced DNA II covalent complexes	Induction of DNA cleavage complexes was also observed	significant induction	increased formation of DNA topoisomerase II covalent complexes			probes 2-28, 1-30, 1-18, and 1-15	probes 1-41 and 1-51	cell viability assessed by Trypan blue exclusion [6]: ~70%; heat stability of cleavage at AF-4 intron 3 position 7126 [1, 9]: especially heat-stable; heat stability of cleavage complexes at MLL bcr position 6588 [1, 9]: remained detectable after heating
O=c1c(-c2ccc(O)cc2)coc2cc(O)cc(O)c12 [genistein]								probes 1-31 (SEQ ID NO: 27), 2-50 (SEQ ID NO: 162), 1-74 (SEQ ID NO: 62), 2-28 (SEQ ID NO: 34), 1-10 (SEQ ID NO: 83), and 1-22 (SEQ ID NO: 71)	Probes 1-68 (SEQ ID NO: 157), 1-41 (SEQ ID NO: 49), 1-51 (SEQ ID NO: 141), and 1-33 (SEQ ID NO: 132)	real-time PCR products, MLL intron 7-exon 8 amplicon [8]: real-time PCR products that were detected
